Results taken from patent publication US9127079B2, “Inhibitors of phosphatase and tensin homolog (PTEN) conjugates” (THE UNIVERSITY OF BRITISH COLUMBIA, priority 2009, dated 2015).

Experiments:
[1] = system: transplanted iPS-NPCs; test: Survival of iPS-NPCs transplanted intracerebrally after focal cerebral ischemia in the rat (TUNEL); assay type: in vivo
Text: iPS-MEF-Ng-20D-17 from Kyoto University, and Cell Bank of RIKEN BioResource Center of Japan (Okita K. et al. Nature (2007) 448(7151):313-17) was induced into iPS-NPCs using a multistage differentiation protocol with some modifications (Kumagai G. et al. PLoS ONE (2009) 4(11):e7706). In brief, the human iPS cells expanding on irradiated MEF feeder cells were passaged, and then transferred to nonadherent culture dishes where they readily formed spheroid embryoid bodies (EBs). Clusters of neuroepithelial-like cells could be isolated and propagated from EBs in the medium of DMEM-F12, N2 supplement (1%; Invitrogen), and 20 ng/mL FGF-2 (R&D Systems™, Germany).
Prior to transplantation, the iPS-NPSs were labeled using 1 μg/mL bis-benzimide (Hoechst™ 33342; Sigma™) for 1 hours at 37° C. as previously described (Shyu W C. et al. J Clin Invest (2008) 118(1):133-148). Labeled cells were then collected and washed in PBS three times. iPS-NPCs were counted using a cytometer to ensure an adequate cell number for transplantation. One week after brain ischemia, adult male Sprague-Dawley rats (weight >300 g) were anesthetized with chloral hydrate (0.4 g/kg, ip) and injected stereotaxically with approximately 1×10^6 cells in a 3-5 μL PBS suspension through a 26-gauge Hamilton syringe into 3 cortical areas adjacent to the right MCA, 3.0 to 5.0 mm below the dura. […]

[2] = Cortical glucose metabolism by FDG-PET after cerebral ischemia; assay type: in vivo, rat; conditions: one week after treatment
Method: (§1) Adult male Sprague-Dawley rats (weight 200 g) were used in this study. All surgical procedures were performed using sterile/aseptic techniques in accordance with Institutional guidelines. Rats were anesthetized with chloral hydrate (0.4 g/kg IP) and subjected to cerebral ischemia. Ligation of the right middle cerebral artery (MCA) and bilateral common carotids arteries (CCAs) was performed by methods described previously (Shyu et al. 2005). The CCAs were clamped with non-traumatic arterial clips. The right MCA was ligated with a 10-0 nylone suture. After 90 min of ischemia, the suture on the MCA and the arterial clips on the CCAs were removed to allow reperfusion. Core body temperature was monitored with a thermistor probe (Hewlett-Packard™ Model 21090A probe, Hewlett-Packard Company™, Andover, Mass.), and maintained at 37° C. with a heating pad during anesthesia. After recovery from anesthesia, rat body temperature was maintained at 37° C. with a heat lamp. Experimental rats were subdivided into five groups receiving different types of interference peptides, all fused to a TAT protein transduction domain (PTEN-K13 (SEQ ID NO: 2) 2 hrs or 6 hrs, PTEN-K13R (SEQ ID NO: 3), PTEN-K289 (SEQ ID NO: 4), and vehicle control) via femoral vein with dosage of 8.4 mg/kg at 2 or 6 hours after MCA ligation for three consecutive days. […]

[3] = Body asymmetry (elevated body swing test) after cerebral ischemia; assay type: in vivo, rat; conditions: vs Peptide-K13R, Peptide-K289, saline
Method: as §1, with “anesthesia.” for “anesthesia. After recovery from anesthesia, rat body temperature was maintained at 37° C. with a heat lamp. Experimental rats were subdivided into five groups receiving different types of interference peptides, all fused to a TAT protein transduction domain (PTEN-K13 (SEQ ID NO: 2) 2 hrs or 6 hrs, PTEN-K13R (SEQ ID NO: 3), PTEN-K289 (SEQ ID NO: 4), and vehicle control) via femoral vein with dosage of 8.4 mg/kg at 2 or 6 hours after MCA ligation for three consecutive days.”
Behavioral assessments were measured on day 28 after stroke. […] The baseline-test scores were recorded in order to normalize those taken after cerebral ischemia. The elevated body swing test (EBST) was used to assess body asymmetry after MCA ligation and evaluated quantitatively as previously described (Shyu et al. 2004). […] The frequency of initial head swing contra-lateral to the ischemic side was counted in twenty continuous tests and was normalized, as follows: % recovery=[1−(lateral swings in twenty tests−10)/10×100%. […]

Substance: KEIVSRNKRRYQED-YGRKKRRQRRR (KEIVSRNKRRYQEDYGRKKRRQRRR; PTEN K13 interference peptide conjugated to TAT protein transduction domain) [Peptide-K13]
- TUNEL positive transplanted iPS-NPCs ([1]; 7 days after transplantation, vs saline-treated rats, n=6): significantly fewer
- survival rate of transplanted iPS-NPCs ([1]; intravenous 8.4 mg/kg once a day for 7 days following transplantation, ischemic rat): significantly increased
- FDG uptake over the right cortex (microPET) ([2]; i.v. 8.4 mg/kg given 2 hours after ischemia onset): striking increase
- FDG uptake over the right cortex (microPET) ([2]; i.v. 8.4 mg/kg given 6 hours after ischemia onset): striking increase
- recovery in body swing tests ([3]; given 2 hours after ischemia): much more recovery
- recovery in body swing tests ([3]; given 6 hours after ischemia): much more recovery
